Data published in PMC9098913, “In vitro reconstitution of Escherichia coli divisome activation” (Nature Communications, 2022).
Where two headings read alike, the source gives them in different places.

Tests used:
FtsZ [1] = conditions: either version of FtsA
Protocol: Additionally, the reaction chamber contained 4 mM ATP and 4 mM GTP, as well as a scavenging system to minimize photobleaching effects: 30 mM d-glucose, 0.050 mg ml^−1 Glucose Oxidase, 0.016 mg ml^−1 Catalase, 1 mM DTT and 1 mM Trolox. Prior addition of all components a corresponding buffer volume was removed from the chamber to obtain a total reaction volume of 100 µl. The dynamic protein pattern was monitored by time-lapse TIRF microscopy at one frame per 2 s and 50 ms exposure time.
To measure reorganization dynamics of FtsZ filaments, we used a temporal correlation analysis based on the Image CorrelationJ 1o plugin. We quantified the PCC between the first frame to subsequent frames with increasing time lag (∆t). The decrease in the PCC was plotted against ∆t to obtain autocorrelation curves. Slower decay indicates more persistent structures. The rates of decay were extracted by fitting monoexponential decay to the autocorrelation curves y=a⋅e^−b⋅t+k , where a is the starting point, b is the decay rate and k is the final offset. The half time of the monoexponential decay was calculated via the decay rate.

FtsZ [2] = test system: FtsZ;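 for effect on FtsZ pattern reorganization dynamics: FtsZ filament patterns imaged by time-lapse TIRF microscopy, one frame per 2 s, with ATP and GTP, Pearson correlation of first frame versus later frames, monoexponential fit, slower decay means persistent structures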
Protocol: (§1) Subsequently, the chamber was washed 6x with reaction buffer, to remove bulk peptide. To visualize colocalization with either FtsZ or FtsA, either a mix of FtsA and Alexa488-FtsZ or Cy3-FtsA and FtsZ was added. […] The time-lapse videos were recorded for 10 min after the addition, with one frame per 2 s.
Time-lapse videos were first intensity-corrected and contrast-enhanced to avoid bleaching effects and simplify subsequent analysis. To remove contributions of X–Y drift, the videos were processed with the Linear Stack Alignment with SIFT plugin. Proper alignment was checked with the 3TP align plugin (J. A. Parker; Beth Israel Deaconess Medical Center, Boston). Subsequently, regions of interest (ROIs) in the center of the stacks were chosen for colocalization analysis. The Pearson’s correlation coefficient (PCC) was quantified with the Image CorrelationJ 1o plugin. To extract information about the relative ratio of FtsZ/FtsA molecules (slope of linear regression), we also used the Image CorrelationJ 1o plugin. As an output, the plugin provides a scatterplot of FtsZ vs FtsA intensities, to which we fitted a linear slope y=k⋅x+d , where k is the slope and d the offset. The slope was used as an estimate for the ratio of FtsA molecules below FtsZ filaments.

FtsZ [3] = test system: FtsZ; remark: listed apart in the source;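 for effect on FtsZ pattern reorganization dynamics: FtsZ filament patterns imaged by time-lapse TIRF microscopy, one frame per 2 s, with ATP and GTP, Pearson correlation of first frame versus later frames, monoexponential fit, slower decay means persistent structures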
Protocol: as §1
Treadmilling dynamics, were quantified using an automated image analysis protocol previously developed by our group. To visualize colocalization of the co-treadmilling FtsZ & FtsA filaments, we used dual-colour videos obtained at an acquisition rate of one frame per 2 s. The two channels were aligned using FIJI’s 3TP align plugin. Both channels were then subjected to the image subtraction protocol and colocalization was measured as described above.

FtsZ-FtsA WT filaments = target: T1, FtsZ-FtsA WT filaments (Escherichia coli, UniProt P0A9A6+P0ABH0); format: binding, E. coli; conditions: 0.2 µM FtsA WT, 1.25 µM FtsZ, […] Tris-NTA; p-value 0.03
T1 construct: TwinStrep-SUMO (N, cleaved yes); made in house; host or cells: E. coli BL21
Excerpt: Single molecule time lapses were acquired every 32 or 51 ms, with exposure times of 30 and 50 ms, respectively.
Single-molecule experiments with FtsNcytowere tracked using the TrackMate plugin from ImageJ[43]. Non-moving particles and short tracks (below 1 s) were filtered out and the data exported as.xml files. […] The packing coefficient is defined as the length of the trajectory in a short time window and the surface area that it occupies. […] This approach is adapted from Renner et al. and implemented here as an easy-to-use Python script. The packing coefficient is computed for each time point as:1 p=∑ii+n−1xi+1−xi^2−yi+1−yi^2/Si^2 Where xi,yi are the coordinates at time i, xi+1, yi+1 are the coordinates at time i+1, n is the length of the time window, and Si is the surface area of the convex hull of the trajectory segment between time points i and i+n. Periods of confinement are identified by setting a threshold corresponding to a certain confinement area size, since p scales with the size of the confinement area. Then it is possible to calculate the frequency and duration of confinement periods and to localize them in space. Each position will have a characteristic p, considering the behaviour of the following n positions. This approach overcomes the limitations of using MSD calculation, which overlooks transient confinement periods. […]

FtsA/Z co-filaments = target: T2, FtsA/Z co-filaments (Escherichia coli, UniProt P0A9A6+P0ABH0, R286W); format: biochemical, E. coli; conditions: all concentrations of FtsA R286W
T2 construct: TwinStrep-SUMO (N, cleaved yes); made in house; host or cells: E. coli BL21
Protocol: By fitting an exponential function to the increase of the PCC with time, we were able to extract the corresponding recruitment rate (Fig. 2f, g).
as §1

[4] = FtsA R286W, even at concentrations above 0.4 µM

T1 sequence (P0A9A6 whole entry): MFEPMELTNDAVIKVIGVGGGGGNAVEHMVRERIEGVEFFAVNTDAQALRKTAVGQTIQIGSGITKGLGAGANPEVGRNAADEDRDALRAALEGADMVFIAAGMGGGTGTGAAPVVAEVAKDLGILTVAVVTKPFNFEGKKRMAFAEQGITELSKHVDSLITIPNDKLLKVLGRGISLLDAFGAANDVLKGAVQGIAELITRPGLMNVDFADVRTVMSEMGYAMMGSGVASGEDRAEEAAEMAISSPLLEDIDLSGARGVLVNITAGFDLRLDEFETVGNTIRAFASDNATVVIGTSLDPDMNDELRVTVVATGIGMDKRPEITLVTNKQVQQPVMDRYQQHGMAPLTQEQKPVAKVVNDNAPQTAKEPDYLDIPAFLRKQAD
T1 sequence (P0ABH0 whole entry): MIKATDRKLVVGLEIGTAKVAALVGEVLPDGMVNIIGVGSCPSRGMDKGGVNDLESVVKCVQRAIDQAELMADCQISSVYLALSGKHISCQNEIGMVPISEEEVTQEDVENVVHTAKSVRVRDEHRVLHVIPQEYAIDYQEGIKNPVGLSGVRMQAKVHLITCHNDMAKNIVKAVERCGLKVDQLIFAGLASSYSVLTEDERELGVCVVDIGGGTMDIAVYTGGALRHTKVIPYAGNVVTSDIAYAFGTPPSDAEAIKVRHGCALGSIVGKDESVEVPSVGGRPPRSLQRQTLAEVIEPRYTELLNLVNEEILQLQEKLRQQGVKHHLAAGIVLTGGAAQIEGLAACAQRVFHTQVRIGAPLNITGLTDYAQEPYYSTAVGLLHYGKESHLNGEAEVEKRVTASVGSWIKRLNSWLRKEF
T2 sequence (P0A9A6 whole entry): as the sequence (P0A9A6 whole entry) above
T2 sequence (P0ABH0 whole entry R286W): as the sequence (P0ABH0 whole entry) above, with R286W counted along it

CSCC[C@H](NC(=O)[C@@H](N)CS)C(=O)N[C@@H](C)C(=O)N[C@@H](CCC(N)=O)C(=O)N[C@@H](CCCNC(=N)N)C(=O)N[C@@H](CC(=O)O)C(=O)N[C@@H](Cc1ccc(O)cc1)C(=O)N[C@H](C(=O)N[C@@H](CCCNC(=N)N)C(=O)N[C@@H](CCCNC(=N)N)C(=O)N[C@@H](CO)C(=O)N[C@@H](CCC(N)=O)C(=O)N1CCC[C@H]1C(=O)N[C@@H](C)C(=O)N1CCC[C@H]1C(=O)N[C@@H](CO)C(=O)N[C@@H](CCCNC(=N)N)C(=O)N[C@@H](CCCNC(=N)N)C(=O)N[C@@H](CCCCN)C(=O)N[C@@H](CCCCN)C(=O)N[C@@H](CO)C(=O)N[C@H](C(=O)N[C@@H](CO)C(=O)N[C@@H](CCCNC(=N)N)C(=O)N[C@@H](CCCCN)C(=O)N[C@@H](CCCCN)C(=O)N[C@@H](CCC(N)=O)C(=O)N[C@@H](CCCNC(=N)N)C(=O)N[C@@H](CC(N)=O)C(=O)N[C@@H](CC(C)C)C(=O)N1CCC[C@H]1C(=O)N[C@@H](C)C(=O)N[C@H](C(=O)N[C@@H](Cc1c[nH]cn1)C(=O)N[C@@H](Cc1c[nH]cn1)C(=O)N[C@@H](Cc1c[nH]cn1)C(=O)N[C@@H](Cc1c[nH]cn1)C(=O)N[C@@H](Cc1c[nH]cn1)C(=O)N[C@@H](Cc1c[nH]cn1)C(=O)O)C(C)C)[C@@H](C)O)C(C)C [FtsNcyto]
effect on FtsZ pattern reorganization dynamics (FtsZ [1]): significantly slows down
PCC FtsNcyto/FtsZ (FtsZ [2]; 0.4 µM FtsA R286W, […] Tris-NTA, 1.25 µM FtsZ, p-value 4.92 × 10^−4): 0.70 ± 0.02
PCC FtsNcyto/FtsZ (FtsZ [2]; 0.4 µM FtsA WT, […] Tris-NTA, 1.25 µM FtsZ, p-value 4.92 × 10^−4): 0.30 ± 0.05
PCC FtsNcyto/FtsZ (FtsZ [2]; [4]): > 0.6
PCCdiff FtsNcyto/FtsZ (FtsZ [3]; 0.4 µM FtsA R286W, […] Tris-NTA, 1.25 µM FtsZ, p-value 3.79 × 10^−3): 0.47 ± 0.05
PCCdiff FtsNcyto/FtsZ (FtsZ [3]; 0.4 µM FtsA WT, […] Tris-NTA, 1.25 µM FtsZ, p-value 3.79 × 10^−3): 0.17 ± 0.04
PCCdiff FtsNcyto/FtsZ (FtsZ [3]; [4]): > 0.6
frequency of transient confinement (FtsZ-FtsA WT filaments): 57.99 ± 7.29%
FtsNcyto enrichment saturated within (FtsA/Z co-filaments): ≤ 1 min
